From patent US11647748B2, “Sulphonamides as methionine metabolic pathway inhibitors” (MIGAL-GALILEE RESEARCH INSTITUTE LTD., priority 2018, dated 2023)

Experiments:
Tobacco CGS [1] = target: T1, Tobacco CGS (Nicotiana tabacum, UniProt Q9ZPL5); assay: TEV experiment (relative to DMSO); assay type: biochemical; design: 6xHIS (N, cleaved yes); GB1 solubility tag (N, cleaved yes); made in house; host or cells: E. coli BL-21
T1 sequence (Q9ZPL5 79-540): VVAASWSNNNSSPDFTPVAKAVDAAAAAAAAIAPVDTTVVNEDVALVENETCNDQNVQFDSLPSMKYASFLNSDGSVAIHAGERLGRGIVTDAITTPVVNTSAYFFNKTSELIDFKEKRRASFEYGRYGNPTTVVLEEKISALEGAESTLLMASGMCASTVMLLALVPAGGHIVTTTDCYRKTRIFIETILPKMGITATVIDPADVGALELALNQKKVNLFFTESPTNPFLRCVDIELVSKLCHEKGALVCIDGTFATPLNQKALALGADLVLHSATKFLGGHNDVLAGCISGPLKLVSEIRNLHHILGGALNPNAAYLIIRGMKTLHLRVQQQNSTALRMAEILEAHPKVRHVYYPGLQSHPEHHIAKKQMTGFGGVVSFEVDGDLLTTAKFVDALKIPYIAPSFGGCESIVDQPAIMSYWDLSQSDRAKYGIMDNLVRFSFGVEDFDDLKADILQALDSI
Description: As discussed above, the first reaction in methionine biosynthesis in plants is catalyzed by the CGS enzyme. In this reaction, the formation of cystathionine is conducted by the γ-replacement of the phosphoryl substituent of O-phospho-homoserine by cysteine and consecutive release of an orthophosphate group.
Expression of recombinant CGS was done by transforming the pET-11 vector containing the DNA sequence of Tobacco CGS with a 6×HIS tag and GB1 solubility tag followed by TEV cleavage site into BL-21 cells. These cells were cultured at 37° C. and optical density (OD)=0.8 protein at 600 nm, and the expression was induced by addition of 1 mM IPTG for 16 hours at 25° C. The protein was purified to homogeneity onto nickel column and cleaved by o/n dialysis with the TEV protease. A second nickel column was used to separate the cleaved CGS from the TEV and GB1 solubility tag.
The direct activity of CGS was tested using the Malachite Green Phosphate Assay Kit (Sigma-Aldrich, cat #MAK307-1KT). It is a highly sensitive and robust experiment used to measure the release of free orthophosphate group based on quantification of the green-coloured complex formed between Malachite Green, molybdate, and free orthophosphate. The rapid colour formation from the reaction can be conveniently measured on a spectrophotometer via the absorbance at 620 nm.
The assay mixture (100 μl) contained 50 mM MOPS-NaOH (pH 7.5), 150 mM NaCl, 0.1 mM PLP and 1 μM purified CGS. The compounds of the present invention were added at a final concentration of 50 μM and reactions were initiated by adding 2 mM cysteine and 3 mM 0-phospho-L-homo-serine. After two-hour incubation at 25° C., 80 μL of each sample were transferred into a new 96 well-plate containing 20 μl of Malachite Green Reagent and incubated for additional 30 min at 25° C. Colour development was measured by a plate reader Tecan M200 (620 nm).

Roquette = Roquette assay spray; assay type: in vivo
BY2 Tobacco cells = assay: BY-2 viability assay (PrestoBlue); assay type: cell-based; settings: viability relative to DMSO-treated cells, 25 μM, 48 hours; for Tobacco cells BY-2 (all (relative to DMSO)): Table 3; for Tobacco cells BY-2 results/DMSO: Table 5
Description: Reference is now made to FIG. 5 showing the BY-2 viability assay. In this assay, the viability of BY2 Tobacco cells was tested following treatment with the compounds of the present invention. For this purpose, cells were cultured in Murashige and Skoog basal medium (Sigma-Aldrich, Cat #M0404), supplemented with 2,4-dichloro-phenoxyacetic acid (0.2 mg/L), and sucrose (3%), and incubated in the dark, at 25° C. and then sub-cultured at a 1:15 dilution in fresh media every 7 days.
Before treatment, the cell suspension was adjusted to OD=0.4 (at 600 nm) and seeded in 6 well plates with a volume of 3 ml […]. The exemplified compounds were then added to the wells, at a final concentration of 25 μM (0.05% DMSO), and incubated for 48 hours. Cellular viability was measured using the commercially available PrestoBlue™ assay (ThermoFisher Scientific, PrestoBlue™ Cell Viability Reagent Cat #A13261). The PrestoBlue™ reagent is a cell-permeant non-fluorescent compound, which is reduced by metabolically active cells and providing a quantitative fluorescent signal. In the assay, 10 μL of the PrestoBlue™ reagent was added to 90 μL of the treated cells and fluorescence measurements were performed done with excitation/emission wavelengths of 560/590 nm in Tecan M200 plate reader.
Tables 1-3 and also the following Table 5 show the results of the BY-2 viability assay described above.

Arabidopsis thaliana = assay: Arabidopsis root length (root growth inhibition); assay type: in vivo; settings: 50 μM compound; for Arabidopsis (relative to DMSO): root length ratio vs DMSO control, lower = shorter root; for Arabidopsis root length: ratio vs DMSO control, Table 4
Description: Finally, FIGS. 7a-7h are the photos of the Arabidopsis thaliana plants and the inhibition of their roots growth by the compounds of the present invention. These experiments were conducted as follows. Seeds were washed with 70% ethanol for one minute and then with sterile water. Sterilisation was performed with 50% bleaching solution (3%) and 0.2% Triton x-100 for ten minutes followed by a five-time wash with sterile water. The seeds were placed in six well-plates with half Murashige and Skoog medium (MS; Duchefa, Haarlem, Netherlands), containing 1% sucrose (w/v), pH 5.8. The plates with Arabidopsis thaliana seeds were placed at 4° C. for two days and then transferred for seven days to growth chamber (22±2° C.) at day/light cycles of 16/8 h. The plates were placed vertically. In each plate, a control including 0.1% DMSO in the medium was added. The compounds of the present invention were tested for their herbicidal efficiency by diluting 1000 times a 50 mM stock in DMSO leading to a final concentration of 50 μM with 0.1% DMSO.
In Tables 1 and 2 above, Arabidopsis root length was measured after addition of 50-μM compound compared with the negative control (DMSO) treatment. Length values indicate the ratio between non-treated plates ([…]) and the length after the addition of 50 μM of each compound. Lower values indicate shorter root length, and consequently, larger effect.

[2] = system: E. coli cells lacking the endogenic MetB CGS gene and transformed to express the CGS from Arabidopsis; assay: E. coli specificity (MOA): growth of E. coli expressing Arabidopsis CGS with and without methionine; assay type: cell-based; settings: score
Description: In addition to the direct binding evaluation, specific assay to test the compounds activity and specificity were also developed. In this assay, E. coli cells, lacking the endogenic MetB CGS gene and transformed to express the CGS from Arabidopsis, were used. These cells were grown on M9 minimal media with and without external methionine supplemented to the cells, in the presence of the compounds of the embodiments. These selected compounds of the embodiments, capable of inhibiting the cell growth on M9, but incapable of affecting the cell growth when supplemented with methionine, were validated as methionine-pathway specific inhibitors.
In this assay, Methionine auxotroph E. coli mutant was transformed with PQE-30 vector containing the Arabidopsis CGS gene as previously described in Yael Hacham et al., Plant Physiol., February 2002, 128(2): 454-462. In order to test the effect of the small molecule inhibitors on the CGS and methionine pathway, growth curves of the E. coli in M9 minimal media with 100 μM IPTG were measured with and without the addition of external methionine (40 mg/L) in the presence of variable compound concentrations. E. coli growth curves were measured by following the optical density at 600 nm of bacteria in 96 well-plate placed within Tecan M200 plate reader in orbital shaking mode at 37° C. The slope of each curve was estimated using the ‘finest’ function in Excel.

Tobacco CGS [3] = target: T1, Tobacco CGS; assay: Micro Scale Thermophoresis (MST) direct binding to CGS; design: 6xHIS (N, cleaved yes); GB1 solubility tag (N, cleaved yes); made in house; host or cells: E. coli BL21; settings: score on scale 0-5; Table 3
Description: The direct binding of the compounds of the embodiments to the CGS was tested by Micro Scale Thermophoresis (MST). In the MST assay, the CGS protein was labelled with a fluorophore, the samples were heated, and changes in fluorescence were measured as a function of the ligand concentration. In the MST assay, similar to the expression and purification described above, the recombinant Tobacco CGS protein was expressed in E. coli BL21 cells and purified to homogeneity. For that particular purpose, the pET-11 vector containing the DNA sequence of Tobacco CGS with an N-terminus 6×HIS tag followed by a TEV-cleavable GB1 solubility tag was cloned and transformed into the bacteria cells. Cells were cultured to OD=0.8, and protein expression was induced by the addition of 1 mM IPTG. The cells were cultured for additional 16 hours temperature 25° C.
Following cellular lysis, the soluble fraction was passed through the nickel column and the bound HIS-tagged protein was eluted by 300 mM imidazole. […]
Thus, the MST assay was performed to measure the biding of the compounds to the CGS protein. […] The MST binding curves were then measured using the Monolith NT.115 apparatus by incubating the labelled protein with the indicated compounds in a dose-response manner.

In the case of `O=C(O)C1CN(S(=O)(=O)/C=C/c2ccc(Cl)cc2)c2ccccc21` (stereo not shown), the “TEV (relative to DMSO)” value (Tobacco CGS [1]; Table 1) is reported as 0.39, the “Roquette assay spray (twice average)” value (Roquette; Table 1) is reported as 3.0 and the “Tobacco cells BY-2 (relative DMSO)” value (BY2 Tobacco cells; Table 1) is reported as 21. For the same compound, the “Arabidopsis (relative to DMSO)” value (Arabidopsis thaliana; Table 1) was 0.04.

`O=C(O)CC1CN(S(=O)(=O)/C=C/c2ccc(Cl)cc2)c2ccccc21` (stereo not shown) was tested, and the “Roquette assay spray (twice average)” value (Roquette; Table 1) was 3.0, the “Tobacco cells BY-2 (relative DMSO)” value (BY2 Tobacco cells; Table 1) was 12 and the “Arabidopsis (relative to DMSO)” value (Arabidopsis thaliana; Table 1) was 0.04. The “E. coli specificity (MOA)” value ([2]; Table 1) was 2.

`O=C(O)C1Cc2ccccc2CN1S(=O)(=O)/C=C/c1ccccc1` (stereo not shown) was tested, and the “Tobacco cells BY-2 (relative DMSO)” value (BY2 Tobacco cells; Table 1) was 46, the “Arabidopsis (relative to DMSO)” value (Arabidopsis thaliana; Table 1) was 0.20 and the “E. coli specificity (MOA)” value ([2]; Table 1) was 4.

In the case of `O=C(O)CC1CN(S(=O)(=O)/C=C/c2ccccc2)c2ccccc21` (stereo not shown), the “TEV (relative to DMSO)” value (Tobacco CGS [1]; Table 1) is reported as 0.25, the “Roquette assay spray (twice average)” value (Roquette; Table 1) is reported as 2.5 and the “Tobacco cells BY-2 (relative DMSO)” value (BY2 Tobacco cells; Table 1) is reported as 21. For the same compound, the “Arabidopsis (relative to DMSO)” value (Arabidopsis thaliana; Table 1) was 0.08 and the “E. coli specificity (MOA)” value ([2]; Table 1) was 5.

`COc1cccc2c1CC(C(=O)O)N2S(=O)(=O)/C=C/c1ccccc1Cl` (stereo not shown) was tested, and the “Roquette assay spray (twice average)” value (Roquette; Table 1) was 2.0, the “Tobacco cells BY-2 (relative DMSO)” value (BY2 Tobacco cells; Table 1) was 17 and the “Arabidopsis (relative to DMSO)” value (Arabidopsis thaliana; Table 1) was 0.24.

`COc1cccc2c1[C@@H](C(=O)O)CN2S(=O)(=O)/C=C/c1cccc(Cl)c1` was tested, and the “TEV (relative to DMSO)” value (Tobacco CGS [1]; Table 1) was 0.22, the “Tobacco cells BY-2 (relative DMSO)” value (BY2 Tobacco cells; Table 1) was 7 and the “Arabidopsis (relative to DMSO)” value (Arabidopsis thaliana; Table 1) was 0.01.

In the case of `O=C(O)C1Cc2ccccc2N1S(=O)(=O)c1ccc2ccccc2c1` (stereo not shown), the “TEV (relative to DMSO)” value (Tobacco CGS [1]; Table 2) is reported as 0.09, the “Roquette assay spray (twice average)” value (Roquette; Table 2) is reported as 2.5 and the “Tobacco cells BY-2 (relative DMSO)” value (BY2 Tobacco cells; Table 2) is reported as 30. The “Arabidopsis (relative to DMSO)” value (Arabidopsis thaliana; Table 2) was 0.20.

With `O=C(O)C1Cc2ccccc2N1S(=O)(=O)C1Cc2ccccc2C1` (stereo not shown) the “TEV (relative to DMSO)” value (Tobacco CGS [1]; Table 2) was 0.13.

`Cc1ccccc1CS(=O)(=O)Nc1ccc2nncn2c1` was tested, and the “Tobacco cells BY-2 (all (relative to DMSO))” value (BY2 Tobacco cells) was 0 and the “E. coli specificity (MOA)” value ([2]; Table 3) was 5.

`O=S(=O)(Cc1ccccc1F)Nc1ccc2nncn2c1` was tested, and the “Tobacco cells BY-2 (all (relative to DMSO))” value (BY2 Tobacco cells) was 0 and the “MST Tobacco (0-5)” value (Tobacco CGS [3]) was 5.

`Cc1nc(-c2ccc(C)c(S(=O)(=O)Nc3cccc(C(=O)O)c3)c2)cs1` [IML-193] was tested, and the Arabidopsis root length (Arabidopsis thaliana) was 0.50.

`Cc1nc(-c2cccc(S(=O)(=O)Nc3cccc(C(=O)O)c3)c2)cs1` [IML-198] was tested, and the “TEV-relative to DMSO” value (Tobacco CGS [1]; Table 6) was 0.71 and the Arabidopsis root length (Arabidopsis thaliana) was 0.31.

For `COc1cccc(S(=O)(=O)Nc2cccc(-c3cn(Cc4ccccc4)nn3)c2)c1` [IML-226], the “Tobacco cells BY-2 results/DMSO” value (BY2 Tobacco cells) was 60.

`CCc1nc(-c2cccc(NS(=O)(=O)c3cccc(OC)c3)c2)no1` [IML-227] was tested, and the “Tobacco cells BY-2 results/DMSO” value (BY2 Tobacco cells) was 33 and the Arabidopsis root length (Arabidopsis thaliana) was 0.36.
